From US20250345295A1, “LMK235 COMPOSITIONS AND METHODS” (UNM Rainforest Innovations, priority 2024, published 2025)

Tested on: differentially expressed genes in TG
Test: RNAseq gene expression profiling of TG
Format: in vivo, mouse
Method: Gene expression profiling was performed on TG from mice with/without nerve injury during the acute phase (three weeks post injury) in TIC mice and after transition to chronic pain (10 weeks post injury) in FRICT-ION mice by Quick Biology Inc. (Monrovia, CA).
Total RNA from ipsilateral TG was isolated using the Rneasy Mini Kit (Qiagen, Valencia, CA). Gene expression profiling and analysis with RNA was done by Quick Biology Inc. (Monrovia, CA). RNAseq library preparation was performed by Quick Biology Inc. (Monrovia, CA), sequencing was performed using an Illumina HiSeq 4000 at 40 million reads per sample. The reads were first mapped to the latest UCSC transcript set using Bowtie2 version 2.1.0 and the gene expression level was estimated using RSEM v1.2.15. Differentially expressed genes were identified using the edgeR program. Genes showing altered expression with p<0.05 were considered differentially expressed.

[1] = LMK235-Treated FRICT-ION Vs Naive
[2] = LMK235-Treated FRICT-ION Vs Untreated FRICT-ION
[3] = TG RNAseq, FRICT-ION mice treated with LMK235 vs naive, week 10
[4] = TG RNAseq, LMK235-treated vs untreated FRICT-ION mice

Cc1cc(C)cc(C(=O)NOCCCCCC(=O)NO)c1 [LMK235, N-[[6-(Hydroxyamino)-6-oxohexyl]oxy]-3,5-dimethyl-benzamide] was tested, and the “Fold-change Arfgef2” value [1] was 1.02, the “Fold-change Astn2” value [1] was 1.04 and the “Fold-change Bmp2” value [1] was 1.11. For the same compound, the “Fold-change Bmp3” value [1] was −1.23, the “Fold-change Bmp4” value [1] was 1.18 and the “Fold-change Bmp5” value [1] was 1.85. For the same compound, the “Fold-change Cacna1a” value [1] was −1.06, the “Fold-change Cacna1g” value [1] was −1.00 and the “Fold-change Cacna1i” value [1] was −1.14. The “Fold-change Cacna1h” value [1] was −1.11, the “Fold-change Cacna1d” value [1] was −1.03 and the “Fold-change Cacnb1” value [1] was −1.02. For the same compound, the “Fold-change Clcn1” value [1] was −1.33, the “Fold-change Clcn2” value [1] was −1.11 and the “Fold-change Clic5” value [1] was −1.08. The “Fold-change Eef2” value [1] was −1.05, the “Fold-change Gabra5” value [1] was 1.02 and the “Fold-change Gabra6” value [1] was 1.18. For the same compound, the “Fold-change Gabre” value [1] was −1.22, the “Fold-change Gabrg1” value [1] was 1.26 and the “Fold-change Jakmip1” value [1] was 1.02. The “Fold-change Kcna5” value [1] was −1.06, the “Fold-change Kcnc3” value [1] was −1.05 and the “Fold-change Kcnd2” value [1] was 1.09. The “Fold-change Kcnh2” value [1] was −1.06, the “Fold-change Kcnh7” value [1] was 1.03 and the “Fold-change Kcnj6” value [1] was −1.10. For the same compound, the “Fold-change Kcnk1” value [1] was −1.02, the “Fold-change Kcns2” value [1] was 1.12 and the “Fold-change Kcnv1” value [1] was 1.26. For the same compound, the “Fold-change Kif1b” value [1] was 1.01, the “Fold-change Maoa” value [1] was 1.08 and the “Fold-change Mapk3” value [1] was −1.02. For the same compound, the “Fold-change Mpz” value [1] was 1.07, the “Fold-change Nacc2” value [1] was −1.05 and the “Fold-change Nav3” value [1] was 1.12. The “Fold-change Ncald” value [1] was 1.05, the “Fold-change Ndnf” value [1] was 1.31 and the “Fold-change Net1” value [1] was −1.11. For the same compound, the “Fold-change Neurod4” value [1] was −1.13, the “Fold-change Nf2” value [1] was −1.02 and the “Fold-change Nfasc” value [1] was −1.09. For the same compound, the “Fold-change Ngef” value [1] was −1.06, the “Fold-change Nkain2” value [1] was 1.05 and the “Fold-change Nova1” value [1] was 1.04. The “Fold-change Nras” value [1] was −1.00, the “Fold-change Nrep” value [1] was 1.04 and the “Fold-change Nrg2” value [1] was 1.04. For the same compound, the “Fold-change Nrg3” value [1] was 1.09, the “Fold-change Nrp2” value [1] was 1.07 and the “Fold-change Ntrk1” value [1] was −1.09. For the same compound, the “Fold-change Nts” value [1] was 1.18, the “Fold-change Plcl1” value [1] was 1.12 and the “Fold-change Scn2a1” value [1] was 1.10. The “Fold-change Scn3a” value [1] was 1.11, the “Fold-change Scn5a” value [1] was 1.23 and the “Fold-change Scn7a” value [1] was 1.07. For the same compound, the “Fold-change Scn8a” value [1] was −1.07, the “Fold-change Scn9a” value [1] was 1.01 and the “Fold-change Slc6a4” value [1] was −1.11. For the same compound, the “Fold-change Trak1” value [1] was −1.05, the “Fold-change Trpc6” value [1] was −1.08 and the “Fold-change Trpm2” value [1] was −1.10. The “Fold-change Trpm3” value [1] was 1.12, the “Fold-change Trpm4” value [1] was −1.14 and the “Fold-change Trpm7” value [1] was 1.10. For the same compound, the “Fold-change Trps1” value [1] was 1.14, the “Fold-change Trpv4” value [1] was 2.12 and the “Fold-change Trpv6” value [1] was −1.07. For the same compound, the “Fold-change Unc80” value [1] was 1.07, the “Fold-change Arfgef2” value [2] was 1.01 and the “Fold-change Astn2” value [2] was 1.0. The “Fold-change Bmp2” value [2] was −1.02, the “Fold-change Bmp3” value [2] was −2.70 and the “Fold-change Bmp4” value [2] was 1.05. For the same compound, the “Fold-change Bmp5” value [2] was −1.01, the “Fold-change Cacna1a” value [2] was −1.16 and the “Fold-change Cacna1g” value [2] was −1.43. The “Fold-change Cacna1i” value [2] was −1.39, the “Fold-change Cacna1h” value [2] was −1.49 and the “Fold-change Cacna1d” value [2] was −1.04. For the same compound, the “Fold-change Cacnb1” value [2] was −1.13, the “Fold-change Clcn1” value [2] was −1.05 and the “Fold-change Clcn2” value [2] was 1.01. For the same compound, the “Fold-change Clic5” value [2] was −1.05, the “Fold-change Eef2” value [2] was 1.01 and the “Fold-change Gabra5” value [2] was −1.23. The “Fold-change Gabra6” value [2] was 2.08, the “Fold-change Gabre” value [2] was 1.10 and the “Fold-change Gabrg1” value [2] was 1.14. For the same compound, the “Fold-change Jakmip1” value [2] was −1.10, the “Fold-change Kcna5” value [2] was −1.41 and the “Fold-change Kcnc3” value [2] was −1.04. For the same compound, the “Fold-change Kcnd2” value [2] was −1.00, the “Fold-change Kcnh2” value [2] was −1.04 and the “Fold-change Kcnh7” value [2] was −1.19. The “Fold-change Kcnj6” value [2] was −1.38, the “Fold-change Kcnk1” value [2] was 1.05 and the “Fold-change Kcns2” value [2] was −1.25. For the same compound, the “Fold-change Kcnv1” value [2] was 1.09, the “Fold-change Kif1b” value [2] was 1.01 and the “Fold-change Maoa” value [2] was 1.14. The “Fold-change Mapk3” value [2] was −1.00, the “Fold-change Mpz” value [2] was −1.05 and the “Fold-change Nacc2” value [2] was −1.00. For the same compound, the “Fold-change Nav3” value [2] was −1.19, the “Fold-change Ncald” value [2] was 1.03 and the “Fold-change Ndnf” value [2] was 1.06. The “Fold-change Net1” value [2] was 1.12, the “Fold-change Neurod4” value [2] was 1.57 and the “Fold-change Nf2” value [2] was 1.04. The “Fold-change Nfasc” value [2] was −1.02, the “Fold-change Ngef” value [2] was −1.34 and the “Fold-change Nkain2” value [2] was −1.14. For the same compound, the “Fold-change Nova1” value [2] was 1.04, the “Fold-change Nras” value [2] was −1.03 and the “Fold-change Nrep” value [2] was 1.01. The “Fold-change Nrg2” value [2] was 1.10, the “Fold-change Nrg3” value [2] was −1.00 and the “Fold-change Nrp2” value [2] was 1.07. The “Fold-change Ntrk1” value [2] was 1.80, the “Fold-change Nts” value [2] was −1.74 and the “Fold-change Plcl1” value [2] was 1.13. The “Fold-change Scn2a1” value [2] was −1.04, the “Fold-change Scn3a” value [2] was −1.01 and the “Fold-change Scn5a” value [2] was 1.01. The “Fold-change Scn7a” value [2] was −1.07, the “Fold-change Scn8a” value [2] was 1.05 and the “Fold-change Scn9a” value [2] was 1.29. For the same compound, the “Fold-change Slc6a4” value [2] was 4.38, the “Fold-change Trak1” value [2] was −1.01 and the “Fold-change Trpc6” value [2] was 1.08. For the same compound, the “Fold-change Trpm2” value [2] was −1.02, the “Fold-change Trpm3” value [2] was 1.19 and the “Fold-change Trpm4” value [2] was 1.05. The “Fold-change Trpm7” value [2] was 1.06, the “Fold-change Trps1” value [2] was 1.03 and the “Fold-change Trpv4” value [2] was 1.21. The “Fold-change Trpv6” value [2] was −1.19, the “Fold-change Unc80” value [2] was 1.10 and the “Fold change S100a9” value (TG RNAseq, FRICT-ION + LMK235 VS FRICT-ION) was −2.74. For the same compound, the “C1q14 RNA level vs naïve” value [3] was “not significantly different from naïve mice”, the “Crhbp RNA level vs naïve” value [3] was “not significantly different form naïve controls” and the “P2rx4 RNA level vs naïve” value [3] was “not different from naïves”. The “Slfn4 RNA level vs naïve” value [3] was “not different from naïve controls”, the P2rx7 foldchanges (TG RNAseq, LMK235-treated and untreated FRICT-ION mice) was “minimal and insignificant foldchanges” and the “Bmp2 downregulated, fold” value [4] was 1.02 fold. The “Bmp3 downregulated, fold” value [4] was 2.70 fold, the Bmp4 expression change [4] was “not affected” and the “Bmp5 downregulated, fold” value [4] was 1.01 fold. The “Cacna1a downregulated, fold” value [4] was 1.16 fold, the “Cacna1 downregulated, fold” value [4] was 1.39 fold and the “Cacna1g downregulated, fold” value [4] was 1.43 fold. The “Cacna1h downregulated, fold” value [4] was 1.49 fold, the “Cacna1d downregulated, fold” value [4] was 1.04 fold and the “CacnbI downregulated, fold” value [4] was 1.13 fold. For the same compound, the “Clcn2 upregulated, fold” value [4] was 1.01 fold, the “Kcna5 downregulated, fold” value [4] was 1.41 fold and the “Kcnd2 downregulated, fold” value [4] was 1.00 fold. For the same compound, the “Kcne2 reduced, fold (insignificant)” value [4] was 1.56 fold, the “Kcnh7 downregulated, fold” value [4] was 1.19 fold and the “Kcnj6 downregulated, fold” value [4] was 1.38 fold. For the same compound, the “Kcnk1 upregulated, fold” value [4] was 1.05 fold, the “Kcns2 downregulated, fold” value [4] was 1.25 fold and the “Maoa upregulated, fold” value [4] was 1.14 fold. For the same compound, the “Mpz downregulated, fold” value [4] was 1.05 fold.
